Tests used:
Candida albicans [1] = experiment: Antifungal activity against Candida albicans ATCC 44859 after 48 hrs by microdilution method; format: functional; settings: ATCC 44859, 48 h
Candida tropicalis [2] = experiment: Antifungal activity against Candida tropicalis 156 after 24 hrs by microdilution method; format: functional; settings: Candida tropicalis, 156, 24 h
Candida albicans [3] = experiment: Antifungal activity against Candida albicans ATCC 90028 after 24 hrs by microdilution method; format: functional; settings: ATCC 90028, 24 h
Lichtheimia corymbifera [4] = experiment: Antifungal activity against Absidia corymbifera 272 after 48 hrs by microdilution method; format: functional, organism-based; settings: Lichtheimia corymbifera, 272, 48 h
Clavispora lusitaniae [5] = experiment: Antifungal activity against Candida lusitaniae 2446/I after 24 hrs by microdilution method; format: functional
[6] = tested on: Trichophyton mentagrophytes; experiment: Antifungal activity against Trichophyton mentagrophytes 445 after 72 hrs by microdilution method; format: functional, organism-based; settings: Trichophyton mentagrophytes, 445, 72 h
Nakaseomyces glabratus [7] = experiment: Antifungal activity against Candida glabrata 20/I after 48 hrs by microdilution method; format: functional
Pichia kudriavzevii [8] = experiment: Antifungal activity against Candida krusei ATCC 6258 after 48 hrs by microdilution method; format: functional; settings: ATCC 6258, 48 h
Pichia kudriavzevii [9] = experiment: Antifungal activity against Candida krusei E28 after 48 hrs by microdilution method; format: functional; settings: E28, 48 h
[10] = Cytostatic activity against human COLO201 cells at 10 umol/L after 72 hrs by XTT assay; format: ADME, cell-based; settings: colo 201, 72 h, 10 µM
CCRF-CEM [11] = experiment: Cytostatic activity against human CCRF-CEM cells at 10 umol/L after 72 hrs by XTT assay; format: ADME, cell-based; settings: 10 µM
[12] = tested on: Trichophyton mentagrophytes; experiment: Antifungal activity against Trichophyton mentagrophytes 445 after 120 hrs by microdilution method; format: functional, organism-based; settings: Trichophyton mentagrophytes, 445, 120 h
Candida albicans [13] = experiment: Antifungal activity against Candida albicans ATCC 44859 after 24 hrs by microdilution method; format: functional; settings: ATCC 44859, 24 h
Candida albicans [14] = experiment: Antifungal activity against Candida albicans ATCC 90028 after 48 hrs by microdilution method; format: functional; settings: ATCC 90028, 48 h
Candida parapsilosis [15] = experiment: Antifungal activity against Candida parapsilosis ATCC 22019 after 48 hrs by microdilution method; format: functional; settings: Lodderomyces parapsilosis, ATCC 22019, 48 h
HL-60 [16] = experiment: Cytostatic activity against human HL60 cells at 10 umol/L after 72 hrs by XTT assay; format: ADME, cell-based; settings: hl-60, 72 h, 10 µM
Lichtheimia corymbifera [17] = experiment: Antifungal activity against Absidia corymbifera 272 after 24 hrs by microdilution method; format: functional, organism-based; settings: Lichtheimia corymbifera, 272, 24 h
Candida tropicalis [18] = experiment: Antifungal activity against Candida tropicalis 156 after 48 hrs by microdilution method; format: functional; settings: Candida tropicalis, 156, 48 h
Nakaseomyces glabratus [19] = experiment: Antifungal activity against Candida glabrata 20/I after 24 hrs by microdilution method; format: functional
Aspergillus fumigatus [20] = experiment: Antifungal activity against Aspergillus fumigatus 231 after 24 hrs by microdilution method; format: functional, organism-based; settings: Aspergillus fumigatus, 231, 24 h
Trichosporon asahii [21] = experiment: Antifungal activity against Trichosporon asahii 1188 after 48 hrs by microdilution method; format: functional; settings: Trichosporon asahii, 1188, 48 h
[22] = Cytostatic activity against human HeLaS3 cells at 10 umol/L after 48 hrs by XTT assay; format: ADME, cell-based; settings: hela s3, 48 h, 10 µM
Candida parapsilosis [23] = experiment: Antifungal activity against Candida parapsilosis ATCC 22019 after 24 hrs by microdilution method; format: functional; settings: Lodderomyces parapsilosis, ATCC 22019, 24 h
Pichia kudriavzevii [24] = experiment: Antifungal activity against Candida krusei E28 after 24 hrs by microdilution method; format: functional; settings: E28, 24 h
Pichia kudriavzevii [25] = experiment: Antifungal activity against Candida krusei ATCC 6258 after 24 hrs by microdilution method; format: functional; settings: ATCC 6258, 24 h
Aspergillus fumigatus [26] = experiment: Antifungal activity against Aspergillus fumigatus 231 after 48 hrs by microdilution method; format: functional, organism-based; settings: Aspergillus fumigatus, 231, 48 h
L1210 [27] = experiment: Cytostatic activity against mouse L1210 cells at 10 umol/L after 72 hrs by XTT assay; format: ADME, cell-based; settings: l1210, 72 h, 10 µM
Clavispora lusitaniae [28] = experiment: Antifungal activity against Candida lusitaniae 2446/I after 48 hrs by microdilution method; format: functional
HT-29 = experiment: Cytostatic activity against human HT-29 cells at 10 umol/L after 72 hrs by XTT assay; format: ADME, cell-based; settings: ht-29, 72 h, 10 µM
Trichosporon asahii [29] = experiment: Antifungal activity against Trichosporon asahii 1188 after 24 hrs by microdilution method; format: functional; settings: Trichosporon asahii, 1188, 24 h
[30] = Cytostatic activity against human COLO201 cells after 72 hrs by XTT assay; format: ADME, cell-based; settings: COLO 201, 72 h
CCRF-CEM [31] = experiment: Cytostatic activity against human CCRF-CEM cells after 72 hrs by XTT assay; format: ADME, cell-based
L1210 [32] = experiment: Cytostatic activity against mouse L1210 cells after 72 hrs by XTT assay; format: ADME, cell-based; settings: L1210, 72 h
HL-60 [33] = experiment: Cytostatic activity against human HL60 cells after 72 hrs by XTT assay; format: ADME, cell-based; settings: HL-60, 72 h
[34] = Cytostatic activity against human HeLaS3 cells after 48 hrs by XTT assay; format: ADME, cell-based; settings: HeLa S3, 48 h

IC50 [12] [µM]	SMILES	IC80 (Candida albicans [1]) [µM]	IC80 (Candida tropicalis [2]) [µM]	IC80 (Candida albicans [3]) [µM]	IC80 (Lichtheimia corymbifera [4]) [µM]	IC80 (Clavispora lusitaniae [5]) [µM]	IC80 [6] [µM]	IC80 (Nakaseomyces glabratus [7]) [µM]	IC80 (Pichia kudriavzevii [8]) [µM]	IC80 (Pichia kudriavzevii [9]) [µM]	IC80 (Candida albicans [13]) [µM]	IC80 (Candida albicans [14]) [µM]	IC80 (Lichtheimia corymbifera [17]) [µM]	IC80 (Candida tropicalis [18]) [µM]	IC80 (Nakaseomyces glabratus [19]) [µM]	IC80 (Aspergillus fumigatus [20]) [µM]	IC80 (Trichosporon asahii [21]) [µM]	IC80 (Pichia kudriavzevii [24]) [µM]	IC80 (Aspergillus fumigatus [26]) [µM]	IC80 (Trichosporon asahii [29]) [µM]	further results
500	COc1ccc(/C=C/C=C2C(=O)C=CC2=O)cc1	250	250	250	> 500	250	250	250	250	250	125	250	> 500	250	250	250	500	250	250	250	Activity [10]: Non-toxic; Activity (CCRF-CEM [11]): Non-toxic; IC80 (Candida parapsilosis [15]): 250 µM; Activity (HL-60 [16]): Non-toxic; Activity [22]: Non-toxic; IC80 (Candida parapsilosis [23]): 250 µM; IC80 (Pichia kudriavzevii [25]): 250 µM; Activity (L1210 [27]): Non-toxic; IC80 (Clavispora lusitaniae [28]): 250 µM; Activity (HT-29): Non-toxic
7.81	COC(/C=C/c1ccccc1)=C1\C(=O)C=C(C)C1=O [CORUSCANONE A]	3.91	3.91		250		3.91	125		250	0.98		31.2	7.1	125	31.2	7.81	125	250	0.98	IC50 (L1210 [32]): 3.8 µM; IC50 (HL-60 [33]): 4.5 µM; IC50 (CCRF-CEM [31]): 3.6 µM
> 125	Cc1ccc(/C=C/C=C2C(=O)C=CC2=O)cc1	7.81	7.81	7.81	> 125	7.81	125	31.2	15.6	15.6	3.9	7.81	> 125	7.81	31.2	62.5	> 125	7.81	> 125	31.2	Activity [10]: Non-toxic; Activity (CCRF-CEM [11]): Non-toxic; IC80 (Candida parapsilosis [15]): 31.2 µM; IC50 [34]: 7.3 µM; Activity (HL-60 [16]): Non-toxic; IC80 (Candida parapsilosis [23]): 7.81 µM; IC80 (Pichia kudriavzevii [25]): 7.81 µM; Activity (L1210 [27]): Non-toxic; IC80 (Clavispora lusitaniae [28]): 15.6 µM; Activity (HT-29): Non-toxic

Second part, the compound before the results:

SMILES	IC50 [12] [µM]	IC80 (Candida albicans [1]) [µM]	IC80 (Candida tropicalis [2]) [µM]	IC80 (Candida albicans [3]) [µM]	IC80 (Lichtheimia corymbifera [4]) [µM]	IC80 (Clavispora lusitaniae [5]) [µM]	IC80 [6] [µM]	IC80 (Nakaseomyces glabratus [7]) [µM]	IC80 (Pichia kudriavzevii [8]) [µM]	IC80 (Pichia kudriavzevii [9]) [µM]	IC80 (Candida albicans [13]) [µM]	IC80 (Candida albicans [14]) [µM]	IC80 (Lichtheimia corymbifera [17]) [µM]	IC80 (Candida tropicalis [18]) [µM]	IC80 (Nakaseomyces glabratus [19]) [µM]	IC80 (Aspergillus fumigatus [20]) [µM]	IC80 (Trichosporon asahii [21]) [µM]	IC80 (Pichia kudriavzevii [24]) [µM]	IC80 (Aspergillus fumigatus [26]) [µM]	IC80 (Trichosporon asahii [29]) [µM]	further results
CN(C)c1ccc(C=C2C(=O)C=CC2=O)cc1	0.98	31.2	62.5	31.2	> 125	7.81	0.98	> 125	7.81	7.81	31.2	62.5	> 125	> 125	62.5	15.6	15.6	7.81	31.2	7.81	IC50 [30]: 1.3 µM; IC80 (Candida parapsilosis [15]): 7.81 µM; Activity (HL-60 [16]): Non-toxic; Activity [22]: Non-toxic; IC80 (Candida parapsilosis [23]): 3.9 µM; IC80 (Pichia kudriavzevii [25]): 7.81 µM; IC50 (CCRF-CEM [31]): 4.3 µM; Activity (L1210 [27]): Non-toxic; IC80 (Clavispora lusitaniae [28]): 31.2 µM; Activity (HT-29): Non-toxic
O=C1C=CC(=O)C1=Cc1ccc2ccccc2c1	15.6	15.6	31.2	15.6	> 125	15.6	7.81	31.2	31.2	31.2	15.6	15.6	125	31.2	31.2	15.6	62.5	31.2	31.2	15.6	IC50 [30]: 2.4 µM; IC80 (Candida parapsilosis [15]): 15.6 µM; IC50 [34]: 13.5 µM; Activity (HL-60 [16]): Non-toxic; IC80 (Candida parapsilosis [23]): 15.6 µM; IC80 (Pichia kudriavzevii [25]): 15.6 µM; IC50 (CCRF-CEM [31]): 3.7 µM; Activity (L1210 [27]): Non-toxic; IC80 (Clavispora lusitaniae [28]): 15.6 µM; Activity (HT-29): Non-toxic
O=C1C=CC(=O)C1=Cc1ccc(Br)cc1	15.6	15.6	15.6	15.6	> 125	15.6	15.6	15.6	15.6	15.6	7.81	15.6	> 125	15.6	15.6	31.2	15.6	15.6	31.2	15.6	Activity [10]: Non-toxic; IC80 (Candida parapsilosis [15]): 15.6 µM; IC50 [34]: 4.9 µM; Activity (HL-60 [16]): Non-toxic; IC80 (Candida parapsilosis [23]): 15.6 µM; IC80 (Pichia kudriavzevii [25]): 15.6 µM; IC50 (CCRF-CEM [31]): 1.8 µM; Activity (L1210 [27]): Non-toxic; IC80 (Clavispora lusitaniae [28]): 15.6 µM; Activity (HT-29): Non-toxic
O=C1C=CC(=O)C1=Cc1ccco1	7.81	15.6	15.6	15.6	> 500	15.6	7.81	15.6	15.6	15.6	7.81	15.6	250	15.6	15.6	15.6	31.2	15.6	31.2	15.6	Activity [10]: Non-toxic; IC80 (Candida parapsilosis [15]): 15.6 µM; IC50 [34]: 7.3 µM; Activity (HL-60 [16]): Non-toxic; IC80 (Candida parapsilosis [23]): 15.6 µM; IC80 (Pichia kudriavzevii [25]): 7.81 µM; IC50 (CCRF-CEM [31]): 2.5 µM; Activity (L1210 [27]): Non-toxic; IC80 (Clavispora lusitaniae [28]): 15.6 µM; Activity (HT-29): Non-toxic
O=C1C=CC(=O)C1=C/C=C/c1ccc(Cl)cc1	250	62.5	62.5	62.5	> 250	62.5	62.5	62.5	62.5	62.5	62.5	62.5	> 250	62.5	62.5	62.5	125	62.5	125	62.5	Activity [10]: Non-toxic; Activity (CCRF-CEM [11]): Non-toxic; IC80 (Candida parapsilosis [15]): 62.5 µM; Activity (HL-60 [16]): Non-toxic; Activity [22]: Non-toxic; IC80 (Candida parapsilosis [23]): 62.5 µM; IC80 (Pichia kudriavzevii [25]): 62.5 µM; Activity (L1210 [27]): Non-toxic; IC80 (Clavispora lusitaniae [28]): 62.5 µM; Activity (HT-29): Non-toxic

— ChEMBL document CHEMBL1833895, “Synthesis and biological activity of desmethoxy analogues of coruscanone A” (Bioorg Med Chem Lett, 2011)
